Experimental data published in patent publication US20240158446A1, “CYCLIC COMPOUND HAVING SELECTIVE INHIBITORY ACTION ON KRAS OVER HRAS AND NRAS” (CHUGAI SEIYAKU KABUSHIKI KAISHA, priority 2021, published 2024).

Assays:
[1] = molecular target: GDP-bound NRAS wild-type protein (Homo sapiens, UniProt P01111); test: Binding to NRAS by surface plasmon resonance (SPR), Single Cycle Kinetics; conditions: for NRAS/KRAS (ratio of KD value with respect to GDP-bound NRAS wild-type protein to KD value with respect to KRAS): SPR KD ratio NRAS/KRAS, class symbols
GDP-bound NRAS wild-type protein, sequence (P01111 whole entry): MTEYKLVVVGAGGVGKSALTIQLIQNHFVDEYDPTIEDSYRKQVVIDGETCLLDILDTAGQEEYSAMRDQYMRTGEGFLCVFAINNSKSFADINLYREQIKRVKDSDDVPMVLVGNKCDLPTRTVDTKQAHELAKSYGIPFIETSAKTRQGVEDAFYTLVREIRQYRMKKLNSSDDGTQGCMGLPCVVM

[2] = molecular target: GDP-bound HRAS wild-type protein (Homo sapiens, UniProt P01112); test: Binding to HRAS by surface plasmon resonance (SPR), Single Cycle Kinetics; conditions: for HRAS/KRAS (ratio of KD value with respect to GDP-bound HRAS wild-type protein to KD value with respect to KRAS): SPR KD ratio HRAS/KRAS, class symbols
GDP-bound HRAS wild-type protein, sequence (P01112 whole entry): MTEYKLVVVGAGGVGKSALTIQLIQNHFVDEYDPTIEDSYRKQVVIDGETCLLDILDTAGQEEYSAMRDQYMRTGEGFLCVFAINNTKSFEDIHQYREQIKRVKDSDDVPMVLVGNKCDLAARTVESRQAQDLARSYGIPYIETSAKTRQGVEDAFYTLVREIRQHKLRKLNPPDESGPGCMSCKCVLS

[3] = SPR, GDP-bound NRAS wild-type protein vs GDP-bound KRAS wild-type protein
[4] = SPR, GDP-bound HRAS wild-type protein vs GDP-bound KRAS wild-type protein

Row | Structure (SMILES) | NRAS/KRAS (ratio of KD value with respect to GDP-bound NRAS wild-type protein to KD value with respect to KRAS) [1] | HRAS/KRAS (ratio of KD value with respect to GDP-bound HRAS wild-type protein to KD value with respect to KRAS) [2] | further results
1 | CCC(CC)[C@H]1C(=O)N(C)[C@H](C(=O)N(C)C)CC(=O)N(C)[C@@H](COC)C(=O)N[C@@H]([C@@H](C)CC)C(=O)N(C)CC(=O)N(C)[C@H]2C/C=C\CCN(C2=O)[C@@H](Cc2ccc(C)cc2)C(=O)N(C)CC(=O)N[C@@H](CCc2ccc(C(F)(F)F)c(OC)c2)C(=O)N2CCCC[C@H]2C(=O)NC2(CC(C)(C)C2)C(=O)N1C [PP2937] | A (a compound having 10 or more and less than 20 is denoted as A) | A (a compound having 10 or more and less than 20 is denoted as A) | 
2 | CCO[C@@H]1C[C@H]2C(=O)NC3(CCC3)C(=O)N(C)[C@@H]([C@H](C)CC)C(=O)N(C)[C@H](C(=O)N3CCOCC3)CC(=O)N(C)[C@@H](CC(C)C)C(=O)N[C@@H]([C@@H](C)CC)C(=O)N(C)CC(=O)N(C)[C@H]3CCCCCN(C3=O)[C@@H](Cc3ccc(C(F)(F)F)cc3)C(=O)N(C)CC(=O)N[C@@H](CCc3cc(F)c(C(F)(F)F)c(F)c3)C(=O)N2C1 [PP0821] |  |  | NRAS/KRAS (ratio of KD value for NRAS to KD value for KRAS) [1, 3]: A (a compound having 10 or more and less than 20 is denoted as A); HRAS/KRAS (ratio of KD value for HRAS to KD value for KRAS) [2, 4]: B (a compound having 3 or more and less than 10 is denoted as B)
3 | CCC[C@H]1C(=O)N[C@@H]([C@@H](C)CC)C(=O)N(C2CC2)CC(=O)N(C)[C@H]2C/C=C\CCN(C2=O)[C@@H](Cc2ccc(C)cc2)C(=O)N(C)CC(=O)N[C@@H](CCc2ccc(Cl)c(Cl)c2)C(=O)N2C[C@H](OCC)C[C@H]2C(=O)NC2(CC(C)(C)C2)C(=O)N(C)[C@@H](CC2CC2)C(=O)N(C)[C@H](C(=O)N(C)C)CC(=O)N1C [PP2805] | A (a compound having 10 or more and less than 20 is denoted as A) | A (a compound having 10 or more and less than 20 is denoted as A) | 
4 | CCC[C@H]1C(=O)N[C@@H]([C@@H](C)CC)C(=O)N(C)CC(=O)N(C)[C@H]2C/C=C\CCN(C2=O)[C@@H](Cc2ccc(C)cc2)C(=O)N(C)CC(=O)N[C@@H](CCc2ccc3c(C)c(C)n(C)c3c2)C(=O)N2C[C@H](OCC)C[C@H]2C(=O)NC2(CC(C)(C)C2)C(=O)N(C)[C@@H](C(CC)CC)C(=O)N(C)[C@H](C(=O)N(C)C)CC(=O)N1C [PP2906] | A (a compound having 10 or more and less than 20 is denoted as A) | A (a compound having 10 or more and less than 20 is denoted as A) | 
5 | CCO[C@@H]1C[C@H]2C(=O)NC3(CCC3)C(=O)N(C)[C@@H](C3CCCC3)C(=O)N(C)[C@H](C(=O)N(C)C)CC(=O)N(C)[C@@H](CCOC)C(=O)N[C@@H]([C@@H](C)CC)C(=O)N(C)CC(=O)N(C)[C@H]3CCCCCN(C3=O)[C@@H](Cc3ccc(C(F)(F)F)cc3)C(=O)N(C)CC(=O)N[C@@H](CCc3cc(F)c(C(F)(F)F)c(F)c3)C(=O)N2C1 [PP0675] |  |  | NRAS/KRAS (ratio of KD value with respect to NRAS to KD value with respect to KRAS) [1, 3]: B (a compound having 3 or more and less than 10 is denoted as B); HRAS/KRAS (ratio of KD value with respect to HRAS to KD value with respect to KRAS) [2, 4]: B (a compound having 3 or more and less than 10 is denoted as B)
6 | CCO[C@@H]1C[C@H]2C(=O)NC3(CCC3)C(=O)N(C)[C@@H](C3CCCC3)C(=O)N(C)[C@H](C(=O)N3CCOCC3)CC(=O)N(C)[C@@H](CC3CC3)C(=O)N[C@@H]([C@@H](C)CC)C(=O)N(C)CC(=O)N(C)[C@H]3C/C=C\CCN(C3=O)[C@@H](Cc3ccc(F)cc3C)C(=O)N(C)CC(=O)N[C@@H](CCc3cc(F)c(C(F)(F)F)c(F)c3)C(=O)N2C1 [PP1495] |  |  | NRAS/KRAS (ratio of KD value for NRAS to KD value for KRAS) ([1]; SPR, GDP-bound NRAS wild-type protein vs GDP-bound KRAS wild-type protein, KD ratio class): A (a compound having 10 or more and less than 20 is denoted as A); HRAS/KRAS (ratio of KD value for HRAS to KD value for KRAS) ([2]; SPR, GDP-bound HRAS wild-type protein vs GDP-bound KRAS wild-type protein, KD ratio class): B (a compound having 3 or more and less than 10 is denoted as B)
